Results on 25 molecules are retold here after patent publication US9931324B2, “Indolizine derivatives and their use in neurodegenerative diseases” (Merck Patent GmbH, priority 2014, dated 2018).

Assay [1] has as its target T1, P2X7 (Homo sapiens, UniProt Q99572).
T1 sequence (Q99572 1-595): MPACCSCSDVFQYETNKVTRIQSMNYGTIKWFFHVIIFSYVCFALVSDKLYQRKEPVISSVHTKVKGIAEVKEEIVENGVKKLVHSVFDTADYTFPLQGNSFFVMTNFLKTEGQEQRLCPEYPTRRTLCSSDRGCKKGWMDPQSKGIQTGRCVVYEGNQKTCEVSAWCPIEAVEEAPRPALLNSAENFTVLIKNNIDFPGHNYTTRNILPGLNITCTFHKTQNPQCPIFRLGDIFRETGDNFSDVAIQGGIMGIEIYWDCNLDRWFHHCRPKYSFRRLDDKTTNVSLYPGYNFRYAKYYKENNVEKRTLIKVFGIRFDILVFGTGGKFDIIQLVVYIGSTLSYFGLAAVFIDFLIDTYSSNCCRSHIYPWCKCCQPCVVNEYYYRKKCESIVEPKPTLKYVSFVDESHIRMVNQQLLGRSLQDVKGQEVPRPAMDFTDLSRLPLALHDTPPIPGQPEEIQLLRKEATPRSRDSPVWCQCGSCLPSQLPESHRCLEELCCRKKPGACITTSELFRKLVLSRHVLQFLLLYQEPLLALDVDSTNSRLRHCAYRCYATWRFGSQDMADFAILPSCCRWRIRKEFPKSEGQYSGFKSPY
Kind of assay: IL-1β release assay in THP-1 cells (sandwich ELISA, BzATP-stimulated). To be noted: LPS primed, 0.8 mM BzATP, mature IL-1β release, read-out: hTHP-1/IL-ib IC50. It counts as cell-based. Also on record: endogenous in cells; host or cells: THP-1 cells (PMA-differentiated, LPS-primed). The protocol: IL-1β release assay: The activation of P2X7 by ATP leads to a fast transient activation of cells resulting in influx of Ca^2+ followed by conversion of pro-IL-1β to active IL-1β. The functional activity of P2X7 compounds was measured by the release of mature IL-1β in the culture medium of THP-1 cells, detected by sandwich ELISA. Cells were maintained in complete growth medium (RPMI 1640+10% HI-FCS+2 mM L-glutamine+1× PS). […] THP-1 cells were harvested from the flask in 50 ml by centrifugation for 3 min at 100 g. The cells were resuspended to 2×10^5 cells/ml in medium supplemented with 0.5 μM PMA and incubated. The cells were washed and resuspended to 1.5×10^5 cells/ml in medium complemented with 10 ng/ml LPS, and the cells were primed for 4 h at 37° C., 5% CO2. After addition of 20 μL of prediluted test compounds, blank, standard and control reagents, cells were incubated for a further 20 min at 37° C. and stimulated with 0.8 mM BzATP for 30 minutes. The cells were centrifuged, supernatant was collected and the presence of mature IL-1β was detected using Dual human IL-1b kit following manufacturer's instruction. The tetrahydrobenzodiazepine analogs effectively modulated the activity of P2X7 in the cells as measured by the levels of pro-inflammatory cytokine IL-1β, which is released by the activation of P2X7 receptor.
In general terms: In an ELISA, binding on a coated surface is turned into a signal by an enzyme label.

The target in assay [2] is T1, P2X7. The assay is described as follows: Pore permeation assay (YO PRO dye uptake, BzATP-induced). Type of assay: cell-based. More on the design: expressed in transfected cells; host or cells: HEK293. The conditions noted are these: HEK293 transfected with human P2X7 receptor, BzATP 10 uM, read-out: hP2X7 IC50. Here is the method:
Agonist-induced pore formation was determined by measuring cellular uptake of YO PRO fluorescence dye in HEK293 transfected with human P2X7 receptor. A HEK293 cell over expressing human P2X7 was harvested using HQTase reagent to detach the cells from T75 cm flask. The harvested cells are centrifuged @1200 rpm for 5 min at room temperature. The viability of cells was determined by Trypan blue dye and the cells are plated @10,000 cell/well in 50 ul volume in a 384W BD Poly lysine coated plate and incubated overnight at 37 C. After overnight incubation, the culture medium was replaced with 35 ul/well assay buffer (5 mM KCl, 0.1 mM CaCl2, 5 mM Glucose, 10 mM HEPES buffer pH7.4 containing 125 mM NaCl. The serial dilution of compounds was performed using Bravo liquid handling instrument and the compounds were added using Bravo to the cell assay plate starting at 2.5 uM with three dilutions for 10 points. The positive control inhibitor compound was added to column 23. The plate was shaken slowly on a plate shaker for 10 seconds. The cells were incubated with the compound for 20 minutes at room temperature. After the incubation period, YO PRO dye (1 uM) along with BzATP (10 uM) were added to cells at 10 ul/well. The plate was centrifuged at 1000 rpm for 5 seconds and incubated at room temperature for 30 minutes. The uptake of YO PRO dye into the cells was measured using Envision Fluorescence plate reader instrument (Perkin Elmer).

Take “(R)-8-chloro-N-((4,4-difluoro-1-hydroxycyclohexyl)methyl)-3-((tetrahydrofuran-3-yl)methyl)indolizine-1-carboxamide [Compound 50]”: the IC50 lay in the range of 101 to 500 nM on P2X7 [1] and 10 to 100 nM on P2X7 [2].

Consider `O=C(NCC1CCC(F)(F)CC1)c1cc(CC2CCOC2)n2cccc(Cl)c12` (stereo not drawn) [Compound 30, 8-chloro-N-((4,4-difluorocyclo-hexyl)methyl)-3-((tetrahydrofuran-3-yl)methyl)indolizine-1-carboxamide], for which the values for the IC50 on P2X7 [1] and on P2X7 [2] were 101 to 500 nM and 10 to 100 nM, respectively.

Turning to `COCCc1cc(C(=O)NCC2(O)CCC(F)(F)CC2)c2c(C(F)(F)F)cccn12` [Compound 49, 3-(2-Methoxy-ethyl)-8-trifluoromethyl-indolizine-1-carboxylic Acid (4,4-difluoro-1-hydroxy cyclohexylmethyl)-amide], the IC50 at P2X7 [2] lay within 101 to 500 nM.

Consider `CC1CC(O)(CNC(=O)c2cc(C3CCC3)n3cccc(Cl)c23)CCC1(F)F` (stereo not drawn) [Compound 7, 8-chloro-3-cyclobutyl-N-((4,4-difluoro-1-hydroxy-3-methylcyclohexyl)methyl) indolizine-1-carboxamide], for which the IC50 on P2X7 [2] is 101 to 500 nM.

`C[C@@H]1CCC[C@](O)(CNC(=O)c2cc(C3CCOCC3)n3cccc(Cl)c23)C1` [Compound 27, 8-chloro-N-(((1R,3R)-1-hydroxy-3-methylcyclohexyl)methyl)-3-(tetrahydro-2H-pyran-4-yl)indolizine-1-carboxamide]: the IC50 at P2X7 [2] lay in the range of 10 to 100 nM.

Consider `O=C(NCC1CCC(F)(F)CC1)c1cc(C2CCOCC2)n2cccc(Cl)c12` [Compound 33, 8-chloro-N-((4,4-difluorocyclohexyl)methyl)-3-(tetrahydro-2H-pyran-4-yl)indolizine-1-carboxamide], for which the IC50 at P2X7 [2] lay in the range of 10 to 100 nM.

On to `COCCc1cc(C(=O)NCC2CCC(F)(F)CC2)c2c(C)cccn12` [Compound 25, 3-(2-Methoxy-ethyl)-8-methyl-indolizine-1-carboxylic Acid (4,4-difluoro-cyclohexylmethyl)-amide], for which the IC50 on P2X7 [2] lay in the range of 101 to 500 nM.

Turning to `O=C(NCC1CCC(F)(F)CC1)c1cc(C2(O)COC2)n2cccc(Cl)c12` [Compound 58, 8-Chloro-3-(3-hydroxy-oxetan-3-yl)-indolizine-1-carboxylic acid (4,4-difluoro-cyclohexylmethyl)-amide], the IC50 at P2X7 [2] fell in the range of 101 to 500 nM.

As to `O=C(NCC1(O)CCCC(C(F)(F)F)C1)c1cc(C2CCOCC2)n2cccc(Cl)c12` (stereo not drawn) [Compound 28, 8-chloro-N-((1-hydroxy-3-(trifluoromethyl)cyclohexyl)methyl)-3-(tetrahydro-2H-pyran-4-yl)indolizine-1-carboxamide], at P2X7 [2], the IC50 lay within 500 to 999 nM.

`O=C(NCC1(O)CCC(F)(F)CC1)c1cc(C2CCOCC2)n2cccc(Cl)c12` [Compound 56, 8-chloro-N-((4,4-difluoro-1-hydroxycyclohexyl)methyl)-3-(tetrahydro-2H-pyran-4-yl)indolizine-1-carboxamide]: at P2X7 [2], the IC50 was 10 to 100 nM.

For `COCCc1cc(C(=O)NCC2(O)CCC(F)(F)CC2)c2c(C)cccn12` [Compound 46, 3-(2-Methoxy-ethyl)-8-methyl-indolizine-1-carboxylic Acid (4,4-difluoro-1-hydroxy-cyclohexylmethyl)-amide], at P2X7 [2], the IC50 lay in the range of 101 to 500 nM.

`O=C(NCC1(O)CCCC(F)(F)C1)c1cc(CCO)n2cccc(Cl)c12` (stereo not drawn) [Compound 68, 8-Chloro-3-(2-hydroxy-ethyl)-indolizine-1-carboxylic Acid (3,3-difluoro-1-hydroxy-cyclohexylmethyl)-amide]: at P2X7 [2], the IC50 lay within 10 to 100 nM.

For the molecule `COCCc1cc(C(=O)NCCC2(O)CCCC2)c2c(Cl)cccn12` [Compound 59, 8-chloro-N-(2-(1-hydroxycyclopentyl)ethyl)-3-(2-methoxyethyl)indolizine-1-carboxamide], the IC50 on P2X7 [1] was more than 1000 nM.

Consider `COCCc1cc(C(=O)NCC2CCC(F)(F)CC2)c2c(C(F)(F)F)cccn12` [Compound 26, 3-(2-Methoxy-ethyl)-8-trifluoromethyl-indolizine-1-carboxylic Acid (4,4-difluorocyclohexylmethyl)-amide], for which the IC50 on P2X7 [2] lay within 101 to 500 nM.

For the molecule `O=C(NCC1(O)CCCC(C(F)(F)F)C1)c1cc(C2CCOC2)n2cccc(Cl)c12` (stereo not drawn) [Compound 74, 8-chloro-N-((1-hydroxy-3-(trifluoromethyl)cyclohexyl)methyl)-3-(tetrahydrofuran-3-yl)indolizine-1-carboxamide], at P2X7 [2], the IC50 is more than 1000 nM.

With `O=C(NCC1CCC(F)(F)CC1)c1cc(C2(O)CCOC2)n2cccc(Cl)c12` (stereo not drawn) [Compound 55, 8-chloro-N-((4,4-difluorocyclohexyl)methyl)-3-(3-hydroxytetrahydrofuran-3-yl)indolizine-1-carboxamide], the IC50 on P2X7 [2] lay within 101 to 500 nM.

As to `COCCc1cc(C(=O)NCc2cccc(C(F)(F)F)c2Cl)c2c(Cl)cccn12` [Compound 3, 8-chloro-N-(2-chloro-3-(trifluoromethyl)benzyl)-3-(2-methoxyethyl) indolizine-1-carboxamide], the IC50 at P2X7 [2] fell in the range of 101 to 500 nM.

As for `C[C@@H]1CCC[C@](O)(CNC(=O)c2cc(C3CCOC3)n3cccc(Cl)c23)C1` (stereo partly drawn) [Compound 38, 8-chloro-N-(((1R,3R)-1-hydroxy-3-methylcyclohexyl)methyl)-3-(tetrahydrofuran-3-yl)indolizine-1-carboxamide], at P2X7 [2], the IC50 was 10 to 100 nM.

As to `CC1CC(O)(CNC(=O)c2cc(C3CCOC3)n3cccc(Cl)c23)CCC1(F)F` (stereo not drawn) [Compound 44, 8-chloro-N-((4,4-difluoro-1-hydroxy-3-methylcyclohexyl)methyl)-3-(tetrahydrofuran-3-yl)indolizine-1-carboxamide], the IC50 at P2X7 [2] lay in the range of 101 to 500 nM.

`O=C(NCC1(O)CCCC(F)(F)C1)c1cc(C2CCC2)n2cccc(Cl)c12` (stereo not drawn) [Compound 20, 8-chloro-3-cyclobutyl-N-((3,3-difluoro-1-hydroxycyclohexyl)methyl) indolizine-1-carboxamide]: the IC50 on P2X7 [2] fell in the range of 10 to 100 nM.

For `O=C(NCC1CCC(F)(F)CC1)c1cc(CCF)n2cccc(Cl)c12` [Compound 34, 8-Chloro-3-(2-fluoro-ethyl)-indolizine-1-carboxylic Acid (4,4-difluoro-cyclohexylmethyl)-amide], the IC50 at P2X7 [2] fell in the range of 10 to 100 nM.

As to `O=C(NCC1CCC(F)(F)CC1)c1ccn2cccc(Cl)c12` [Compound 42], the IC50 on P2X7 [2] was in the range of 101 to 500 nM.

With `CCOCCc1cc(C(=O)NCC2CCC(F)(F)CC2)c2c(Cl)cccn12` [Compound 19, 8-Chloro-3-(2-ethoxy-ethyl)-indolizine-1-carboxylic Acid (4,4-difluoro-cyclohexylmethyl)-amide], the IC50 at P2X7 [2] lay within 101 to 500 nM.

For the molecule `O=C(NCC1(O)CCCC(C(F)(F)F)C1)c1cc(C2CCC2)n2cccc(Cl)c12` (stereo not drawn) [Compound 4, 8-chloro-3-cyclobutyl-N-((1-hydroxy-3-(trifluoromethyl)cyclohexyl)methyl) indolizine-1-carboxamide], the IC50 at P2X7 [2] is more than 1000 nM.

For the molecule `CC(CO)c1cc(C(=O)NCC2CCC(F)(F)CC2)c2c(Cl)cccn12` (stereo not drawn) [Compound 75, 8-Chloro-3-(2-hydroxy-1-methyl-ethyl)-indolizine-1-carboxylic Acid (4,4-difluoro-cyclohexylmethyl)-amide], the IC50 on P2X7 [2] was 10 to 100 nM.
